Laboratory results as given in patent US8920832B2, “Composition for nucleic acid transfection” (Hokkaido System Science Co., Ltd., priority 2006, dated 2014).

Columns and labels:
HT1080 cells [1] = test: DNA (pCMV-SPORT-βgal) transfection into HT1080 cells: β-gal activity; type: cell-based
Excerpt: (§1) The procedure of Test Example 5 was repeated, except that HeLa cells were replaced with HT1080 cells.
(§2) The procedure of Test Example 7 was repeated, except that HeLa cells were replaced with HT1080 cells.

HeLa cells [2] = test: Cytotoxicity score under microscope after DNA transfection, HeLa cells; type: cell-based
Method: (§4) HeLa cells were inoculated into a 96-well plate (7,500 cells/100 μL/well), followed by culturing for about 24 hours. DNA (pCMV-SPORT-βgal) was diluted with a DMEM medium, to thereby prepare a DNA-diluted solution having a DNA concentration of 8 μg/mL (for the case of 200 ng/well). […] The thus-obtained solution or Lipofectamine 2000 as a positive control (product of Invitrogen) was diluted with a DMEM medium so that the amount of the reconstituted liposome solution or Lipofectamine 2000 added to cells was “Amount of liposomes added (μL/well)” shown in Table 9 or 10. Immediately after dilution, the DNA-diluted solution (25 μL) was added to and mixed with the liposome-diluted solution (25 μL), and the mixture was allowed to stand still at room temperature for 30 minutes, to thereby form a DNA/liposome complex. The DNA/liposome complex (50 μL) was added to the inoculated HeLa cells (about 70 to about 90% confluent), to thereby initiate transfection. After culturing at 37° C. and 5% CO2 for one hour, a 10% FBS/DMEM medium (100 μL) was added to the culture liquid, followed by culturing at 37° C. and 5% CO2 for about 21 hours.
(§5) Each of the enhancers shown in Table 13 was diluted with a DMEM medium to different concentrations so that the amount of the enhancer finally added to cells was “Enhancer amount (μg/well)” shown in Table 13. […] The thus-diluted liposome solution was added to an equiamount of the above-diluted enhancer, followed by incubation at room temperature for 20 minutes. […] Subsequently, cytotoxicity was evaluated according to the aforementioned scores, and determination of β-gal activity, quantitative determination of protein, and viable cell counting were carried out.

HeLa cells [3] = test: Viable cell counting (WST-1), cell survival rate, HeLa cells; type: cell-based
Method: (§3) Viable cell counting was carried out by means of a Cell Counting Kit (product of Dojindo Laboratories) based on WST-1 assay. […] Thereafter, absorbance was measured at 450 nm. A cell count vs. A450 standard curve was prepared on the basis of a separately prepared dilution series of different numbers of inoculated cells, and the number of viable cells was estimated by use of the standard curve.

HeLa cells [4] = test: DNA (pCMV-SPORT-βgal) transfection into HeLa cells: β-gal activity; settings: for β-gal activity: HeLa
Method: as §4
The culture supernatant was removed, and the cells were washed with PBS(−). Thereafter, determination of β-galactosidase (hereinafter may be abbreviated as “β-gal”) activity, quantitative determination of protein, and viable cell counting were carried out as described below.
After complete removal of PBS through suction, a lysis buffer (30 μL) was added to the cells, and the mixture was stirred and then allowed to stand still at −80° C. for 30 minutes or longer for freezing. After rapid thawing in a water bath at 37° C., the mixture was again allowed to stand still at −80° C. for 30 minutes or longer for freezing, followed by rapid thawing in a water bath at 37° C. Thereafter, centrifugation was carried out (2,000 g×10 minutes), and the resultant supernatant (sample) (10 μL) was added to a 96-well microplate.
Determination of β-gal activity was carried out by means of a β-gal assay kit (product of Invitrogen). […] A 2-Me-containing cleavage buffer was added (50 μL/well) to the sample or each of the standard-diluted solutions (10 μL), and 4 mg/mL aqueous ONPG solution was added (17 μL/well), followed by incubation at 37° C. for 30 minutes. After completion of incubation, a stop buffer was added (120 μL/well) for termination of reaction, and absorbance was measured at 405 nm.
as §5

HT1080 cells [5] = test: Viable cell counting (WST-1), cell survival rate, HT1080 cells; type: cell-based
Method: as §3, §1, §2

HT1080 cells [6] = test: Cytotoxicity score under microscope after DNA transfection, HT1080 cells; type: cell-based; design: scale not given here
Excerpt: as §1, §2

[7] = Formulation Example 4 0.38 μL/well, enhancer 0.625 μg/well
[8] = Formulation Example 4 0.38 μL/well, enhancer 1.25 μg/well
[9] = Formulation Example 4 0.38 μL/well, enhancer 2.5 μg/well
[10] = Formulation Example 4 0.38 μL/well, enhancer 5 μg/well
[11] = Formulation Example 4 0.38 μL/well, enhancer 10 μg/well
[12] = Formulation Example 4 0.75 μL/well, enhancer 0.625 μg/well
[13] = Formulation Example 4 0.75 μL/well, enhancer 1.25 μg/well
[14] = Formulation Example 4 0.75 μL/well, enhancer 2.5 μg/well
[15] = Formulation Example 4 0.75 μL/well, enhancer 5 μg/well
[16] = Formulation Example 4 0.75 μL/well, enhancer 10 μg/well
[17] = Formulation Example 4 0.38 μL/well, enhancer 20 μg/well
[18] = Formulation Example 4 0.38 μL/well, enhancer 40 μg/well

poly L-lysine
β-gal activity (HT1080 cells [1]; [7]): 76.7 mU/well | β-gal activity (HT1080 cells [1]; [8]): 49.5 mU/well | β-gal activity (HT1080 cells [1]; [9]): 25.7 mU/well | β-gal activity (HT1080 cells [1]; [10]): 12.2 mU/well | β-gal activity (HT1080 cells [1]; [11]): 8.8 mU/well | β-gal activity (HT1080 cells [1]; [12]): 98.0 mU/well | β-gal activity (HT1080 cells [1]; [13]): 93.8 mU/well | β-gal activity (HT1080 cells [1]; [14]): 59.2 mU/well | β-gal activity (HT1080 cells [1]; [15]): 42.7 mU/well | β-gal activity (HT1080 cells [1]; [16]): 25.3 mU/well | Cytotoxicity score (HeLa cells [2]; [7]): 0.5 | Cytotoxicity score (HeLa cells [2]; [8]): 0.0 | Cytotoxicity score (HeLa cells [2]; [9]): 0.0 | Cytotoxicity score (HeLa cells [2]; [10]): 0.5 | Cytotoxicity score (HeLa cells [2]; [11]): 0.5 | Cytotoxicity score (HeLa cells [2]; [12]): 1.0 | Cytotoxicity score (HeLa cells [2]; [13]): 0.5 | Cytotoxicity score (HeLa cells [2]; [14]): 0.0 | Cytotoxicity score (HeLa cells [2]; [15]): 0.0 | Cytotoxicity score (HeLa cells [2]; [16]): 0.5 | Cell survival rate (HeLa cells [3]; [7]): 62% | Cell survival rate (HeLa cells [3]; [8]): 71% | Cell survival rate (HeLa cells [3]; [9]): 70% | Cell survival rate (HeLa cells [3]; [10]): 70% | Cell survival rate (HeLa cells [3]; [11]): 76% | Cell survival rate (HeLa cells [3]; [12]): 73% | Cell survival rate (HeLa cells [3]; [13]): 94% | Cell survival rate (HeLa cells [3]; [14]): 99% | Cell survival rate (HeLa cells [3]; [15]): 97% | Cell survival rate (HeLa cells [3]; [16]): 99% | β-gal activity (HeLa cells [4]; [7]): 23.9 mU/well | β-gal activity (HeLa cells [4]; [8]): 3.4 mU/well | β-gal activity (HeLa cells [4]; [9]): 0.6 mU/well | β-gal activity (HeLa cells [4]; [10]): 0.6 mU/well | β-gal activity (HeLa cells [4]; [11]): 0.1 mU/well | β-gal activity (HeLa cells [4]; [12]): 54.1 mU/well | β-gal activity (HeLa cells [4]; [13]): 6.6 mU/well | β-gal activity (HeLa cells [4]; [14]): 1.5 mU/well | β-gal activity (HeLa cells [4]; [15]): 0.7 mU/well | β-gal activity (HeLa cells [4]; [16]): 0.2 mU/well | Cell survival rate (HT1080 cells [5]; [7]): 53% | Cell survival rate (HT1080 cells [5]; [8]): 72% | Cell survival rate (HT1080 cells [5]; [9]): 78% | Cell survival rate (HT1080 cells [5]; [10]): 65% | Cell survival rate (HT1080 cells [5]; [11]): 80% | Cell survival rate (HT1080 cells [5]; [12]): 62% | Cell survival rate (HT1080 cells [5]; [13]): 75% | Cell survival rate (HT1080 cells [5]; [14]): 82% | Cell survival rate (HT1080 cells [5]; [15]): 86% | Cell survival rate (HT1080 cells [5]; [16]): 82% | Cytotoxicity score (HT1080 cells [6]; [7]): 2.0 | Cytotoxicity score (HT1080 cells [6]; [8]): 2.0 | Cytotoxicity score (HT1080 cells [6]; [9]): 1.0 | Cytotoxicity score (HT1080 cells [6]; [10]): 0.5 | Cytotoxicity score (HT1080 cells [6]; [11]): 1.0 | Cytotoxicity score (HT1080 cells [6]; [12]): 2.5 | Cytotoxicity score (HT1080 cells [6]; [13]): 2.0 | Cytotoxicity score (HT1080 cells [6]; [14]): 1.5 | Cytotoxicity score (HT1080 cells [6]; [15]): 0.5 | Cytotoxicity score (HT1080 cells [6]; [16]): 1.0

CCCC(=O)[O-].[Na+] [sodium butyrate]
β-gal activity (HT1080 cells [1]; [9]): 45.0 mU/well | β-gal activity (HT1080 cells [1]; [10]): 40.2 mU/well | β-gal activity (HT1080 cells [1]; [11]): 37.3 mU/well | β-gal activity (HT1080 cells [1]; [17]): 40.3 mU/well | β-gal activity (HT1080 cells [1]; [18]): 45.6 mU/well | Cytotoxicity score (HeLa cells [2]; [9]): 1.5 | Cytotoxicity score (HeLa cells [2]; [10]): 1.0 | Cytotoxicity score (HeLa cells [2]; [11]): 1.0 | Cytotoxicity score (HeLa cells [2]; [17]): 1.5 | Cytotoxicity score (HeLa cells [2]; [18]): 2.0 | Cell survival rate (HeLa cells [3]; [9]): 67% | Cell survival rate (HeLa cells [3]; [10]): 73% | Cell survival rate (HeLa cells [3]; [11]): 65% | Cell survival rate (HeLa cells [3]; [17]): 66% | Cell survival rate (HeLa cells [3]; [18]): 68% | β-gal activity (HeLa cells [4]; [9]): 20.4 mU/well | β-gal activity (HeLa cells [4]; [10]): 19.8 mU/well | β-gal activity (HeLa cells [4]; [11]): 18.7 mU/well | β-gal activity (HeLa cells [4]; [17]): 20.9 mU/well | β-gal activity (HeLa cells [4]; [18]): 26.7 mU/well | effect of enhancer on nucleic-acid-transfecting performance and cytotoxicity, in words (HeLa cells [4]; enhancer added to liposome solution of Formulation Example 4, summary of Tables 13 and 14 (HeLa and HT1080)): excellent effects | Cell survival rate (HT1080 cells [5]; [9]): 55% | Cell survival rate (HT1080 cells [5]; [10]): 50% | Cell survival rate (HT1080 cells [5]; [11]): 53% | Cell survival rate (HT1080 cells [5]; [17]): 52% | Cell survival rate (HT1080 cells [5]; [18]): 62% | Cytotoxicity score (HT1080 cells [6]; [9]): 1.5 | Cytotoxicity score (HT1080 cells [6]; [10]): 1.5 | Cytotoxicity score (HT1080 cells [6]; [11]): 2.0 | Cytotoxicity score (HT1080 cells [6]; [17]): 2.5 | Cytotoxicity score (HT1080 cells [6]; [18]): 3.0
